Experiments:
[1] = biological target: T1, Polyamine deacetylase HDAC10 (Homo sapiens) (UniProt Q969S8); conditions: dose 500.0 µM
T1 sequence (whole entry): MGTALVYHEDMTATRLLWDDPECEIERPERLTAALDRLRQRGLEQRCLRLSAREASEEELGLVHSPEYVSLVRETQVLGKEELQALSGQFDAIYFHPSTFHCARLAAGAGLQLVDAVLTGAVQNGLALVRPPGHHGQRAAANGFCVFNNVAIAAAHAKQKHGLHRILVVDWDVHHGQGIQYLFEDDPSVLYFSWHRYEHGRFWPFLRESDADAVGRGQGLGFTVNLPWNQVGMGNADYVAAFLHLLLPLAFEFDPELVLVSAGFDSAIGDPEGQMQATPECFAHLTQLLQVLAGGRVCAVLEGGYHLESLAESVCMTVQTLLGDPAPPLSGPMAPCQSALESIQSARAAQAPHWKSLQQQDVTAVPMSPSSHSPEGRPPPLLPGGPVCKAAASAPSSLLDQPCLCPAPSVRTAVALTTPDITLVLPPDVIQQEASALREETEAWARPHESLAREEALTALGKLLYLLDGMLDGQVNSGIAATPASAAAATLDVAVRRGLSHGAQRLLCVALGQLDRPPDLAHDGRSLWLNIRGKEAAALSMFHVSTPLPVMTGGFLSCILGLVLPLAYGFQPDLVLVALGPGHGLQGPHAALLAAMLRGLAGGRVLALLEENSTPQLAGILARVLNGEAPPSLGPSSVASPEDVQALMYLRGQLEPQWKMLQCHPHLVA
Description: Binding affinity to humanized HDAC10 (A24E to D94A residues) (unknown origin) extracted from Danio rerio assessed as change in melting temperature at 500 uM by differential scanning fluorimetry analysis

[2] = biological target: T1, Polyamine deacetylase HDAC10 (Homo sapiens); conditions: dose 500.0 µM; remark: listed apart in the source
Description: Binding affinity to humanized HDAC10 (A24E to D94A residues) (unknown origin) extracted from Danio rerio assessed as thermal stability by measuring melting temperature at 500 uM by differential scanning fluorimetry analysis (Rvb = 47.8+/-0.1degreeC)

- ΔTm [1]: 17.7 °C
- Tm [2]: 65.5 °C
Structure (SMILES): CN1CCc2c(c3ccccc3n2Cc2ccc(C(=O)NO)cc2)C1
